Paper PMC6648477 (ACS Omega, 2019)
Like-named read-outs stand apart in the source and are kept apart here. Blank lines part the entries; values can stand above or below the molecule they belong to.

Legend:
double His-TEV-hMcl-1 = double His-TEV-hMcl-1 (Homo sapiens, UniProt Q07820); assay: SPR direct binding, Mcl-1
hBcl-2 = hBcl-2 (Homo sapiens, UniProt P10415); assay: FP assay, displacement of F-Puma from hBcl-2; assay type: binding
hMcl-1 = hMcl-1 (Homo sapiens, UniProt Q07820); assay: FP assay, displacement of F-Puma from hMcl-1; assay type: binding
mMcl-1 = mMcl-1 (Mus musculus, UniProt P97287); assay: 1H,15N HSQC NMR titration, Mcl-1; assay type: binding; conditions: Mcl-1 Kd by 1H,15N HSQC NMR (N)
[1] = target: Unmodified human Bcl-2 residues 1-207 (hBcl-2) (human, UniProt P10415 1-207); assay: fluorescence polarisation
[2] = read-out: Bcl-2 eKi, FP assay, NM = not measurable at top concentration (2.5 mM or solubility limit)

Chain of mMcl-1 (P97287 152-308 limits assumed): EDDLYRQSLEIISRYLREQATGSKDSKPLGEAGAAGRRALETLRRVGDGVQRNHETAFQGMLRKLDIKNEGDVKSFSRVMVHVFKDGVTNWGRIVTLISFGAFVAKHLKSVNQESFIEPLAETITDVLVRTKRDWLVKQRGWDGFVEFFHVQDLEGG
Chain of hMcl-1 (Q07820 171-327 limits assumed): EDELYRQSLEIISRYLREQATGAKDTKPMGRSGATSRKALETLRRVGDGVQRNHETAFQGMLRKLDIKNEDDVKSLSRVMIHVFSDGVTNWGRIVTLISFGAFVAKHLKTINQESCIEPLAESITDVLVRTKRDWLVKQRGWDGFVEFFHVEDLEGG
Chain of hBcl-2 (P10415 1-207): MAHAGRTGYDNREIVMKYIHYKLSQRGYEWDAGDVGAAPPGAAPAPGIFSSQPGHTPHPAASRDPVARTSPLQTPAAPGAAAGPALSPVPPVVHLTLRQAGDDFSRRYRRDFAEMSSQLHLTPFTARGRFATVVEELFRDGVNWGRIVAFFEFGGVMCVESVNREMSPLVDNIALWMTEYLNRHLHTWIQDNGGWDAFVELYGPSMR
Chain of double His-TEV-hMcl-1 (Q07820 171-327 limits assumed): as the sequence (Q07820 171-327 limits assumed) above
Chain of Unmodified human Bcl-2 residues 1-207 (hBcl-2) (P10415 1-207): as the sequence (P10415 1-207) above

Molecule: O=C(O)c1csc(C2CN(Cc3ccccc3)c3ccccc3O2)n1 (stereo not drawn) [Compound 25]
Kd (double His-TEV-hMcl-1): 450 µM
Ki (hBcl-2): 800 µM
Ki (hMcl-1): 40 µM
Kd (mMcl-1): 40 µM

Molecule: CCN1CC(c2nc(C(=O)O)cs2)Oc2ccccc21 (stereo not drawn) [Compound 24]
Ki (hBcl-2): 500 µM
Ki (hMcl-1): 20 µM
Kd (mMcl-1): 220 µM

Molecule: O=C(O)c1nc(C2COc3ccccc3O2)sc1Cc1ccccc1 (stereo not drawn) [Compound 22]
Kd (double His-TEV-hMcl-1): 140 µM
Ki (hBcl-2): 80 µM
Ki (hMcl-1): 40 µM
Kd (mMcl-1): 85 µM

The remaining lines, values ahead:

Ki (hBcl-2; [2]): > 2500 µM
Ki (hMcl-1): 500 µM
Kd (mMcl-1): 360 µM
Molecule: O=C(O)c1csc(C2CNc3ccccc3O2)n1 (stereo not drawn) [Compound 23]

Ki (hBcl-2; [2]): > 2500 µM
Ki (hMcl-1): 30 µM
Kd (mMcl-1): 110 µM
Molecule: O=C(O)c1csc([C@H]2CN(Cc3ccccc3)c3ccccc3O2)n1 [Compound 26]

Ki (hBcl-2; [2]): > 2500 µM
Ki (hMcl-1): 40 µM
Kd (mMcl-1): 140 µM
Molecule: O=C(O)c1csc([C@@H]2CN(Cc3ccccc3)c3ccccc3O2)n1 [Compound 27]

binding result [1]: binds
B1: Puma peptide (peptide)
peptide: RGEEEQWAREIGAQLRRMADDLN
